From patent US20200129523A1, “SHIP INHIBITION TO INDUCE EXPRESSION OF GRANULOCYTE COLONY STIMULATING FACTOR IN A SUBJECT” (THE RESEARCH FOUNDATION FOR THE STATE UNIVERSITY OF NEW YORK, priority 2014, published 2020)
Entries after “also recorded” stand apart in the source; their conditions may differ.

Legend:
SHIP1 = target: T1, SHIP1 (Homo sapiens, UniProt Q92835); assay: Fluorescence Polarization (FP) assay for SHIP1 enzymatic activity; format: biochemical; details: in vitro, hydrochloride
T1 sequence (Q92835 1-1189): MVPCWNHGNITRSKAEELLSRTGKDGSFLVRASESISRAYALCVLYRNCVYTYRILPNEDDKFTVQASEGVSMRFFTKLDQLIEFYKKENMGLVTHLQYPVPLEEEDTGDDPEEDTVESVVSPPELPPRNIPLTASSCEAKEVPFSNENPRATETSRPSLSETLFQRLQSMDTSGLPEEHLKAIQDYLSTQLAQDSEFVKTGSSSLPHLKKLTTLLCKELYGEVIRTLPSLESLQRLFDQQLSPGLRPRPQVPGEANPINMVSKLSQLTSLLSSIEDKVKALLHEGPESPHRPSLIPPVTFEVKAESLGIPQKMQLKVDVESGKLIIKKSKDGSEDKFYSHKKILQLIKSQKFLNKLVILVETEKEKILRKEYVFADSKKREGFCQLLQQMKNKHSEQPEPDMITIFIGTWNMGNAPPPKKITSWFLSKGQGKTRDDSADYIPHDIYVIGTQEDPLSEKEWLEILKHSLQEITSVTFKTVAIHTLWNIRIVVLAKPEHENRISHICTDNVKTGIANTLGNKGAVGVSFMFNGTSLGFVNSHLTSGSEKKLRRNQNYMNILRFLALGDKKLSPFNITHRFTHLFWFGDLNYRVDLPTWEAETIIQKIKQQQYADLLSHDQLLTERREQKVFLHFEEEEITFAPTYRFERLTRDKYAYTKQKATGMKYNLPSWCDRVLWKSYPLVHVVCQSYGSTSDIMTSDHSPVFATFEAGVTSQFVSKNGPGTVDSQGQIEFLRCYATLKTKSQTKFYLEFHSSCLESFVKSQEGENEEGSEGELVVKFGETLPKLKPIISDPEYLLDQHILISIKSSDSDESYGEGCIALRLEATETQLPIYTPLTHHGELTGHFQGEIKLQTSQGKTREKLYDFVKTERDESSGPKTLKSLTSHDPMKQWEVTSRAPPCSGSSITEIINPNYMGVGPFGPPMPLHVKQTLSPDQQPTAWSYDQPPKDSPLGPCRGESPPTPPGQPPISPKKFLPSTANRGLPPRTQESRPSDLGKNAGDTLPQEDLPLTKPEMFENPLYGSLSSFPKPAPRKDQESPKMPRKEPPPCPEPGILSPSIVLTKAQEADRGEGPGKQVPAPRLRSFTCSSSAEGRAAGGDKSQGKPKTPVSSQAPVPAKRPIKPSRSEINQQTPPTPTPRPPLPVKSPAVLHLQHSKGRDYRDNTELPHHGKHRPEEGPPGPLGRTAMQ
Description: FIGS. 6A-6F: Characterizations of the soluble SHIPi compound K118. FIG. 6A: Fluorescence Polarization (FP) assay comparing SHIPi enzymatic inhibitory activity between 3AC and K118 (IC50˜13.87). In the remaining panels we show for K118 and H2O treated mice (as indicated). FIG. 6B: Representative box and whisker graph depicting serum levels of G-CSF (n=4/group); FIG. 6C: Flow cytometric analysis comparing LT-HSC (LSKFlk2−CD34−), ST-HSC (LSKFlk2−CD34+), and MPP (LSKFlk2^+CD34^+); FIG. 6D: Absolute increase in BM LT-HSC, ST-HSC, and MPP (n=5/group). Primary CRU assay illustrating global and lineage reconstitution one month post transplant; Absolute increase in repopulating units (RU). FIG. 6E: Representative contour plots for PDGFRα^+CD51^+ MSC (after excluding CD45^+, CD31^+, Lin^+ cells); FIG. 6F: Box and whiskers graph illustrating the percentage of PDGFRa^+CD51^+ MSC (n=5/group); Representative images of CFU-F assays used to measure CFU-F frequencies in BM cells of treated mice and Box and whiskers graphs indicating CFU-F frequency in treated mice. All of the above comparisons are representative of two independent experiments.
(FIG. 6A) We sought to determine if this water-soluble K118 SHIPi compound has the capacity to increase G-CSF production within the same five-day injection period as 3AC. […]

HSC = assay: CRU assay (competitive repopulating units), primary and secondary; format: in vivo, mice
Procedure: CD45.1^+45.2^+-recipient mice were given a split dose of 550 Rads (x-ray source, RS2000-RAD source technologies, inc.) 4 hours apart for a lethal total dose of 1100 Rads. WBM (5×10^5) cells from 3AC (CD45.2) treated mice were competed with WBM cells from vehicle (CD45.1) treated mice and injected retro-orbitally into CD45.1^+45.2^+ hosts. PBMC multi-lineage reconstitution was evaluated every month post-transplant for 4 months. Transplanted mice were euthanized and serially transplanted to determine self-renewal capacity. Repopulating Units (RU) determination was previously decribed.^15 Briefly, RU=(C×CD45.2 repopulation %)/(100−CD45.2 repopulation %) where C=10^5 competitor cells.^6
Normal Repopulating units (RU) are calculated based on total number of competitor cells transplanted. Due to the expansion in the bone marrow compartment of SHIPi treated mice, we calculated the absolute RU numbers based on RU output determined by CRU assay and total BM cellularity. Total BM cellularity was determined via hemacytometer (BioRAD, TC20 cell counter) based on a total BM cells obtained from an intact set of femurs and tibias for each mouse in the study. Absolute RU=(Total BM cellularity/5×10^5)×RU.

MSC (CFU-F) = assay: Colony forming unit (CFU-F) assay on BM cells of treated mice; format: in vivo; details: K118 10 mg/kg i.p. 5 days, vs H2O
Procedure: Primary whole BM cells (adherent+non-adherent) were plated in 60-mm plates (triplicates, 3×10^6 cells per plate) in CFU-F growth media: DMEM, Mesencult Serum (Stem Cell Technologies) with 1% penicillin-streptomycin-glutamine. Cells were cultured for approximately 7 days, after which cells were fixed with 70% ethanol and stained for alkaline phosphatase activity using the Leukocyte Alkaline Phosphatase Kit (Sigma) and counter-stained with neutral red (Sigma). Colonies (ALP^+ cells/colonies) were counted using the Software program “Image J” (National Institutes of Health Research Services Branch).

G-CSF = G-CSF ELISA of serum of treated mice; format: in vivo; details: K118 10 mg/kg i.p. 5 days, vs H2O; hydrochloride, 10 mg/kg
Procedure: Peripheral blood was collected in serum separation microvette tubes (SARSTEDT). Tubes were kept at room temperature for 2 hrs. and then spun at 2000×g for 20 min as per manufacturers recommendation. Serum levels of G-CSF in treated mice were determined using a Mouse G-CSF Quantikine Elisa kit (R&D systems).

For `C[C@@]12CCC[C@H]1[C@@H]1CC[C@H]3C[C@@H](N)CC[C@]3(C)[C@H]1CC2.Cl` [K118, 3β-amino-5α-androstane hydrochloride], the “SHIP1 inhibitory activity compared with 3AC” value (SHIP1) was “comparable SHIP1 inhibitory activity; also recorded: equal potency”, the “absolute CRU numbers” value (HSC; K118 treated vs H2O treated donors) was “significant increase” and the CRU activity (HSC; primary CRU, WBM of K118 treated vs H2O treated mice) was “significant increase”. The “frequency of CFU-F in BM” value (MSC (CFU-F)) was “significantly increased frequency” and the “G-CSF production (serum)” value (G-CSF) was “significant increase; also recorded: super-induces”.
